Experimental data published in PubChem BioAssay AID179 (DTP/NCI, 2004).
Several values for one entry are separate records, joined by “and”; a condition that tells them apart may be missing. Equal values may be shown once. Activity calls are given as the source filed them.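 How the source made its calls: active means compounds giving half or more protection of infected cells from virus-caused growth loss, again on retest; inactive means the rest.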

System: CEM cells HIV-1 protection, formazan growth assay
Test: NCI AIDS Antiviral Assay
Conditions: for IC50: measured here: growth of uninfected CEM cells
How it was run: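 Protection of CEM cells against HIV-1 was scored from cell growth (soluble formazan) across five concentrations, with parallel uninfected cells. Lack of protection may reflect toxicity.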

CCOC(=O)c1cc2ccccc2cc(C(=O)OCC)c1=O
EC50: > 200 µM
IC50: 34.7 µM

O=C(OC/C=C1C=C(OC(=O)c2ccccc2)/C(=N/N(C(=O)c2ccccc2)c2ccccc2)O\1)c1ccccc1
EC50: > 200 µM
IC50: 11 µM

CN(c1ccccc1)c1c(-c2ccccc2)c(=O)oc2c1ccc1occc12
outcome: inactive

COc1cccc(C2CC23C(=O)NC(=O)NC3=O)c1 (stereo unspecified)
EC50: > 100 µM
IC50: > 100 µM

CCN(CC)c1ccc2cc(S(=O)(=O)c3ccccc3)c(=O)oc2c1
outcome: inactive

Cn1c(=O)[nH]n(C2Cn3c(=O)n(C)c(=O)n3-c3ccccc32)c1=O (stereo unspecified)
EC50: > 200 µM
IC50: > 200 µM

Cc1ncc([N+](=O)[O-])n1CCOC(N)=O
EC50: > 200 µM
IC50: > 200 µM

COc1cccc2c1c1ccc3c(c1n2C)C(=O)C=CC3=O
EC50: > 17.8 µM
IC50: 7.08 µM

N#C/C(=C\c1ccc(O)cc1)c1ccc([N+](=O)[O-])cc1
EC50: > 200 µM
IC50: 174 µM

COc1ccc([C@H]2Oc3cc(O)cc(O)c3C(=O)[C@@H]2[C@H]2C(=O)c3c(O)cc(OC)cc3O[C@@H]2c2ccc(OC)cc2)cc1
EC50: > 200 µM
IC50: 110 µM

CCCNCC(O)COc1ccc2c3c(c(=O)oc2c1)CCC3 (stereo unspecified)
EC50: > 200 µM
IC50: 87.1 µM

C=CCOc1cc(NC(=S)c2ccoc2C)ccc1OC
EC50: 0.141 µM
IC50: 117 µM

O=[N+]([O-])/C(C(Cl)=C(Cl)Cl)=C(/Nc1ccccc1)Sc1ccccc1
EC50: > 200 µM
IC50: 23.4 µM

Cc1cc2c(cc1C)[n+](=O)c(C(=O)C/C(=N/NC(=O)CC#N)C(=O)Nc1ccccc1C(F)(F)F)c(C)n2[O-]
EC50: > 13.2 µM
IC50: > 13.2 µM

CC12CCC(=O)[C@@]1(C)CCCC2O (stereo partly specified)
outcome: inactive

Nc1nn2cc3c(nc2c1N=Nc1ccc(Cl)cc1)CCCCC3
EC50: > 151 µM
IC50: > 151 µM

COCCOCCOCCC(=O)NC1CC2CCC1(C)C2(C)C (stereo unspecified)
EC50: > 200 µM
IC50: > 200 µM

COc1ccc(S(=O)(=O)O)cc1NS(=O)(=O)c1ccc(C)cc1
EC50: > 200 µM
IC50: > 200 µM

O=C(Sc1ccccc1)C1OC12CCCCC2 (stereo unspecified)
EC50: > 200 µM
IC50: 13.2 µM

S=C1c2ccc(Cl)cc2-n2cnnc2C2CSCN12 (stereo unspecified)
EC50: > 200 µM
IC50: > 200 µM

O=C(O)CSc1n[nH]c(=S)c2nc[nH]c12
EC50: > 537 µM
IC50: > 537 µM

CC[Si](CC)(CC)OC(C#N)c1ccc2c(c1)OCO2 (stereo unspecified)
outcome: inactive

CCN(CC)CCN1C=CC(C)C(C(=O)O)C1C(N)=O (stereo unspecified)
EC50: > 100 µM
IC50: > 100 µM

CNC(=O)NCCN1CC2CCC(CC2)C1
EC50: > 200 µM
IC50: > 200 µM

C/C(=C1/N=C(c2cc([N+](=O)[O-])ccc2Cl)N(c2ccc(Br)cc2)C1=O)c1ccc(N(CCC#N)CCC#N)cc1C
EC50: > 11.5 µM
IC50: > 11.5 µM

Fc1cccc(C2ON=C(c3ccccc3)N2C23CC4CC(CC(C4)C2)C3)c1 (stereo unspecified)
EC50: > 200 µM
IC50: > 200 µM

CN1C(=O)CSC1=S
EC50: > 1700 µM
IC50: 4.79 µM and 36.3 µM

CCOC(=O)C(N=C(c1ccccc1)c1ccccc1)N(C(=O)OC(C)(C)C)C(=O)OC(C)(C)C (stereo unspecified)
outcome: inactive

O=C1CC2(CCC(O)(c3ccc4ccccc4c3)C(C(=O)c3ccc4ccccc4c3)C2)C(=O)c2ccccc2N1 (stereo unspecified)
EC50: > 200 µM
IC50: 83.2 µM

Cc1nc(C(N)=S)sc1C(=O)CC(=O)C(=O)Nc1c(C(C)C)cccc1C(C)C
EC50: > 302 µM
IC50: 30.9 µM

O=C1CC(O)c2c(Cl)sc(Cl)c21 (stereo unspecified)
EC50: > 200 µM
IC50: 5.25 µM

CCCCCCCCCCCCCCCCP(=O)(O)OP(=O)(O)OCC1OC(n2cnc3c(N)ncnc32)C(O)C1O (stereo unspecified)
EC50: > 100 µM
IC50: 19.5 µM

C[N+]12CC3C(O)CC1CCC32 (stereo unspecified)
EC50: > 1320 µM
IC50: > 1320 µM
